For one assay, the target named is T1, GST tagged PIP4KtypeIIA (Homo sapiens, UniProt P48426).
T1 construct: made in house; host or cells: E. coli
T1 sequence (P48426 1-406): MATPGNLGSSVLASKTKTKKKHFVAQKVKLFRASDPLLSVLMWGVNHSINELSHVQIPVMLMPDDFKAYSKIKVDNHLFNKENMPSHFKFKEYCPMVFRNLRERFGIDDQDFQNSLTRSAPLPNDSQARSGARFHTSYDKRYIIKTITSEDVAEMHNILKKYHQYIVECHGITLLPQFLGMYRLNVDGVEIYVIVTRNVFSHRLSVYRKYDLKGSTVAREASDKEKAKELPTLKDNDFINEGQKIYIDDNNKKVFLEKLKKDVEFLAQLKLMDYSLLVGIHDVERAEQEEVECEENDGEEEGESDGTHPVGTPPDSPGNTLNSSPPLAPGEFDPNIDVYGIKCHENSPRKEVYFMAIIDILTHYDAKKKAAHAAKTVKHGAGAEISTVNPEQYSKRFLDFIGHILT
Description: ADP-glo kinase assay PIP4K 2A (PIP4KtypeIIA inhibition assay). Format: biochemical. To be noted: Table 3; compounds listed under IC50 range headings; 10 uM ATP, 0.5 nM PIP4KIIA. From the text:
GST tagged PIP4KtypeIIA and B enzymes were overexpressed in E. Coli and purified to >80% homogeneity. Phosphatidyl inositol-5-phosphate (PI5P, Cat. #850152, Avanti Polar Lipids Inc.) was used as the lipid substrate and phosphatidyl ethanolamine (DOPE 18:1, Cat. #850725, Avanti Polar Lipids Inc.) was used as the carrier lipid for assays. Ultrapure ATP and GTP was purchased from Bellbrooke Labs. ADP Glo reagents were obtained from Promega. Transcreener FI reagent was obtained from Bellbrooke labs.
1. HEPES buffer mix: 200 mM HEPES pH 7.4, 50 mM MgCl2, 0.05% v/v triton×100
2. HNE buffer: 20 mM HEPES, pH 7.4, 100 mM NaCl, 0.5 mM EGTA
3. H:E buffer: 30 mM HEPES, pH 7.4, 1 mM EGTA
Enzyme preparation: GST-tagged PIP4KtypeIIA (5 uL, 1.43 mg/mL) was diluted (1:10) to 50 uL using HNE buffer. From the 1:10 diluted stock, a 6.4 uL aliquot was diluted further to 5 mL using HNE buffer to yield 5× enzyme stock (2.5 nM).
Lipid Preparation: In a 10 mL pyrex glass vial, lug of PI5P and lug of DOPE were suspended in 2.5 mL of HEPES buffer mix and 2.5 mL of H:E buffer. The contents were mixed and sonicated for 3 min to yield a translucent lipid stock.
Compound Preparation: Compounds were stored as 5 mM stocks in neat DMSO as room temperature in glass vials. 5 mM stocks were diluted to 2 mM and then serially diluted (3×) in neat DMSO in 96 well polypropylene plates. From the serially diluted stocks, 3 uL was delivered into 250 uL of 25% DMSO (in water) to generate 5× compound stocks. Typically, the highest compound conc. was 24 uM.
The assay volume was kept at 25 uL. To each well of the reaction plate, 10 uL of lipid stock (1:1 ratio PI5P:DOPE) was delivered. This was followed by the addition of 5 uL of compound in 25% DMSO. Then, to each well, 5 uL of 2.5 nM (5×) typeIIA enzyme was delivered. The contents were mixed well and incubated for 1 h at 27 C. After 1 h, reaction was initiated by adding 5 uL of 50 uM ATP and the contents were mixed well with a multi-channel pipetteman. The final concentration of the reagents are as follows: 50 mM HEPES, pH 7.3, 10 mM MgCl2, 20 mM NaCl, 0.01% v/v triton-X100, 5% DMSO, 10 uM ATP, 80 uM (2 ug) PI5P, 2 ug DOPE, and 0.5 nM PIP4KIIA. Typically, the highest conc. of compounds was 4.8 uM and the lowest conc. was 0.
After 1 hr, the reaction was quenched by adding 25 uL of ADP Glo reagent. The contents were incubated for 1 hr. Afterwards, 50 uL of kinase detection reagent was delivered. The contents were incubated for another hour. The luminescence was read using Molecular Devices Paradigm plate reader. […] The blanks were averaged and subtracted from all other wells. Using a calibration curve, RLU was converted to uM ADP (product). IC50 was calculated by plotting the residual activity (expressed as % No inhibitor control) vs. log [Inh. conc.]
In general terms: In ADP-Glo the light output rises with the ADP produced.

The target of the next assay is T2, GST tagged PIP4KtypeIIB (Homo sapiens, UniProt P78356).
T2 construct: made in house; host or cells: E. coli
T2 sequence (P78356 1-416): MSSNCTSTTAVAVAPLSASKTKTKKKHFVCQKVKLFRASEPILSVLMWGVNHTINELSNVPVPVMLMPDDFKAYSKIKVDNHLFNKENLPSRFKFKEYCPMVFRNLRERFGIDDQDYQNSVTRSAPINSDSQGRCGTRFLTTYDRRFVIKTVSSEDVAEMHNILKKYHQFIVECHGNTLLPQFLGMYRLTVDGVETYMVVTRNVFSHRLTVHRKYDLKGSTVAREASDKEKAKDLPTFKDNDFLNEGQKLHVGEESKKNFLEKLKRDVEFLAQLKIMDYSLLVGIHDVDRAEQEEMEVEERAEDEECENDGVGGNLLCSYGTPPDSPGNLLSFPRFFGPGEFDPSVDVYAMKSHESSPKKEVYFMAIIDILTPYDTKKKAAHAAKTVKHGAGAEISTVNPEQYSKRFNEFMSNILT
Description: Trans-FI P kinase assay PIP4K2B (PIP4KtypeIIB inhibition assay). Format: biochemical. To be noted: Table 4; compounds listed under IC50 range headings; 100 uM GTP, 5 nM PIP4KIIB; read-out: Trans-FI P kinase assays: PIP4K2B IC50. The procedure, abridged:
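Transcreener FI fluorescence, converted to GDP by calibration, tracked product from 5 nM E. coli-expressed GST-PIP4KIIB acting on 80 uM PI5P (DOPE carrier) with 100 uM GTP. Compound (top 4.8 uM final, 5% DMSO) was preincubated 1 h at 27 C before the 2 h reaction; IC50 fitted from residual activity.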

In assay [1] the target is T3, PIP4K2A (full length protein, SignalChem) (Homo sapiens, UniProt P48426).
T3 construct: 4 nM PIP4K2A (full length protein, SignalChem); purchased SignalChem
T3 sequence (P48426 1-406): T1 sequence (P48426 1-406)
Kind of assay: Kinase Assay PIP4K2 A (Sprint); ADP-Glo biochemical assay. Particulars: Table 2; compounds listed under IC50 range headings. The procedure, abridged:
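ADP-Glo luminescence detected ADP after a 1 h RT reaction started with 60 μM ATP solution. Before that, full-length PIP4K2A (4 nM in mix) with 100 μM PI(5)P diC8 was pre-incubated 15 min with compounds in MOPS buffer pH 7.2, 25 mM MgCl2, 0.005% Tween 20. IC50 derived from % inhibition relative to DMSO over 10 three-fold concentrations.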

Each structure is given as a SMILES string.

`Cc1c(-c2ccc(N3CCCC3=O)cc2)cncc1-c1cn(C)c2ncc([C@@H](C)O)cc12` (single isomer, unassigned) [196(R)]: the IC50 against GST tagged PIP4KtypeIIA and at GST tagged PIP4KtypeIIB was 100 to 1000 nM each time.

Regarding `Cc1c(-c2ccc(N3CCCC3=O)cc2)cncc1-c1cn(C)c2ncc([C@H](C)O)cc12` (single isomer, unassigned) [196(S)], the IC50 against GST tagged PIP4KtypeIIA and at GST tagged PIP4KtypeIIB was 100 to 1000 nM each time.

Take `Cc1cc(N2CCCC2=O)ccc1-c1cncc(-c2cn(C)c3ncc([C@@H](C)O)cc23)c1` (single isomer, unassigned) [197(R)]: the half-inhibitory concentration (IC50) on GST tagged PIP4KtypeIIA was 100 to 1000 nM; on GST tagged PIP4KtypeIIB, 1000 to 2500 nM.

Take `Cc1cc(N2CCCC2=O)ccc1-c1cncc(-c2cn(C)c3ncc([C@H](C)O)cc23)c1` (single isomer, unassigned) [197(S)]: the IC50 against GST tagged PIP4KtypeIIA is 100 to 1000 nM; on GST tagged PIP4KtypeIIB, 1000 to 2500 nM.

In the case of `CN(C)C(=O)c1ccc(-c2cc(-c3ccnc4[nH]c(C(=O)NCCN)cc34)cnc2N)nc1` [Example 133, 4-(2′-amino-5-(dimethylcarbamoyl)-[2,3′-bipyridin]-5′-yl)-N-(2-aminoethyl)-1H-pyrrolo[2,3-b]pyridine-2-carboxamide], the IC50 against GST tagged PIP4KtypeIIA lay in the range of 1000 to 2500 nM; at GST tagged PIP4KtypeIIB it was 100 to 1000 nM.

Regarding `CN(C)C(=O)c1ccc(-c2cc(-c3ccnc4[nH]c(C(=O)NC5CCOCC5)cc34)cnc2N)nc1` [Example 137, 4-(2′-amino-5-(dimethylcarbamoyl)-[2,3′-bipyridin]-5′-yl)-N-(tetrahydro-2H-pyran-4-yl)-1H-pyrrolo[2,3-b]pyridine-2-carboxamide], the IC50 against GST tagged PIP4KtypeIIA lay in the range of 100 to 1000 nM; at GST tagged PIP4KtypeIIB, 10 to 100 nM.

Take `CN(C)C(=O)c1ccc(-c2cc(-c3ccnc4[nH]c(C(=O)N5CCCC5)cc34)cnc2N)nc1` [Example 141, 2′-amino-N,N-dimethyl-5′-(2-(pyrrolidine-1-carbonyl)-1H-pyrrolo[2,3-b]pyridin-4-yl)-[2,3′-bipyridine]-5-carboxamide]: the results for the 50% inhibitory concentration (IC50) against GST tagged PIP4KtypeIIA and on GST tagged PIP4KtypeIIB were 100 to 1000 nM and 10 to 100 nM, respectively.

With `CN(C)C(=O)c1ccc(-c2cc(-c3ccnc4[nH]c(C(=O)N5CCS(=O)(=O)CC5)cc34)cnc2N)nc1` [Example 142, 2′-amino-5′-(2-(1,1-dioxidothiomorpholine-4-carbonyl)-1H-pyrrolo[2,3-b]pyridin-4-yl)-N,N-dimethyl-[2,3′-bipyridine]-5-carboxamide], the half-inhibitory concentration (IC50) at GST tagged PIP4KtypeIIA and on GST tagged PIP4KtypeIIB was 100 to 1000 nM throughout.

On to `CN(C)C(=O)c1ccc(-c2cc(-c3ccnc4[nH]c(C(N)=O)cc34)cnc2N)nc1` [Example 143, 4-(2′-amino-5-(dimethylcarbamoyl)-[2,3′-bipyridin]-5′-yl)-1H-pyrrolo[2,3-b]pyridine-2-carboxamide], for which the IC50 was 100 to 1000 nM at GST tagged PIP4KtypeIIA and 10 to 100 nM on GST tagged PIP4KtypeIIB.

As for `CN(C)C(=O)c1ccc(-c2cc(-c3ccnc4[nH]c(C(=O)NCC(N)=O)cc34)cnc2N)nc1` [Example 144, N-(2-amino-2-oxoethyl)-4-(2′-amino-5-(dimethylcarbamoyl)-[2,3′-bipyridin]-5′-yl)-1H-pyrrolo[2,3-b]pyridine-2-carboxamide], the half-maximal inhibitory concentration (IC50) at GST tagged PIP4KtypeIIA lay in the range of 100 to 1000 nM; at GST tagged PIP4KtypeIIB, 10 to 100 nM.

With `CN(C)C(=O)c1ccc(-c2cc(-c3ccnc4[nH]c(C(=O)NCC(=O)O)cc34)cnc2N)nc1` [Example 145, (4-(2′-amino-5-(dimethylcarbamoyl)-[2,3′-bipyridin]-5′-yl)-1H-pyrrolo[2,3-b]pyridine-2-carbonyl)glycine], the IC50 against GST tagged PIP4KtypeIIA and at GST tagged PIP4KtypeIIB was 100 to 1000 nM throughout.

With `CN(C)C(=O)c1ccc(-c2cc(-c3ccnc4[nH]c(C(=O)NC5COC5)cc34)cnc2N)nc1` [Example 146, 4-(2′-amino-5-(dimethylcarbamoyl)-[2,3′-bipyridin]-5′-yl)-N-(oxetan-3-yl)-1H-pyrrolo[2,3-b]pyridine-2-carboxamide], the IC50 fell in the range of 100 to 1000 nM at GST tagged PIP4KtypeIIA and 10 to 100 nM on GST tagged PIP4KtypeIIB.

With `CN(C)C(=O)c1ccc(-c2cc(-c3ccnc4[nH]c(C(=O)N5CC6(COC6)C5)cc34)cnc2N)nc1` [Example 147, 5′-(2-(2-oxa-6-azaspiro[3.3]heptane-6-carbonyl)-1H-pyrrolo[2,3-b]pyridin-4-yl)-2′-amino-N,N-dimethyl-[2,3′-bipyridine]-5-carboxamide], the IC50 against GST tagged PIP4KtypeIIA is 100 to 1000 nM; on GST tagged PIP4KtypeIIB it was 10 to 100 nM.

With `Cc1c(-c2ccc(N3CCCC3=O)cc2)cncc1-c1cn(C)c2ncc(C(C)O)cc12` (stereo not drawn) [Example 196, 1-(4-(5-(5-(1-hydroxyethyl)-1-methyl-1H-pyrrolo[2,3-b]pyridin-3-yl)-4-methylpyridin-3-yl)phenyl)pyrrolidin-2-one], at GST tagged PIP4KtypeIIA, the concentration for half-maximal inhibition (IC50) lay in the range of 100 to 1000 nM.

Take `O=C(COc1cccc2c1C(=O)N(C1CCC(=O)NC1=O)C2=O)NCCCCCCCCNC(=O)c1cc2c(-c3cncc(-c4ccc(N5CCCC5=O)cc4)c3)ccnc2[nH]1` (stereo not drawn) [Example 395, N-(8-(2-((2-(2,6-dioxopiperidin-3-yl)-1,3-dioxoisoindolin-4-yl)oxy)acetamido)octyl)-4-(5-(4-(2-oxopyrrolidin-1-yl)phenyl)pyridin-3-yl)-1H-pyrrolo[2,3-b]pyridine-2-carboxamide]: the IC50 is 100 to 1000 nM at GST tagged PIP4KtypeIIB and 1000 to 2500 nM in assay [1].

Turning to `CC(C)Cn1cnnc1-c1ccc(-c2cncc(-c3ccnc4[nH]c(C(=O)NCCc5ccncc5)cc34)c2)cc1` [Example 396, 4-(5-(4-(4-isobutyl-4H-1,2,4-triazol-3-yl)phenyl)pyridin-3-yl)-N-(2-(pyridin-4-yl)ethyl)-1H-pyrrolo[2,3-b]pyridine-2-carboxamide], the half-maximal inhibitory concentration (IC50) at GST tagged PIP4KtypeIIB fell in the range of 10 to 100 nM; in assay [1], 1000 to 2500 nM.

For the compound `C[C@@H]1C[C@@H](C(C)(C)O)N(C(=O)c2cc3c(-c4cncc(-c5ccc(N6CCCC6=O)cc5)c4)ccnc3[nH]2)C1` [Example 397], the IC50 (on GST tagged PIP4KtypeIIB; in assay [1]) was 100 to 1000 nM in each case.

For orientation: IC50 means the midpoint of a concentration-inhibition curve.
